Laboratory results published in patent US6410533B1, “Antibacterial compounds” (Genzyme Corporation, priority 2000, dated 2002).
≈ marks a conversion by molar mass, not a printed value.

Tests used:
[1] = system: Staphylococcus aureus bacteria (ATCC 9604 SV); experiment: IC50 determination, growth inhibition by turbidity at 550 nm; assay type: cell-based; conditions: Staphylococcus aureus ATCC 9604 SV, turbidity at 550 nm after 3-5 h at 37° C.
Procedure: (§1) Minimal inhibitory concentrations (MICs) for Staphylococcus aureus bacteria (ATCC 9604 SV) were determined by broth microdilution methodology following National Committee for Clinical Laboratory Standards. In the MIC determinations, the compounds were incorporated into Mueller-Hinton broth (Becton Dickinson Microbiology systems, Cockeyville, Md.) at a series of concentrations. After the test organism was grown overnight in TB broth, the broths were adjusted to the turbidity equivalent to 0.05 McFarland standard. The suspensions were diluted twenty-fold into the broth containing the compounds. […] In the IC50 determination, the method was modified to allow the rapid growth of the organisms. The inoculum suspensions were adjusted to 0.1 McFarland standard and then diluted two-fold into the wells containing TB broth and the compounds. After three to five hours incubation at 37° C., the turbidity was measured at 550 nm and inhibitory activity was defined as the concentration of antimicrobial agent that inhibits 50% growth of the organism in the microdilution wells.

[2] = system: Staphylococcus aureus bacteria (ATCC 9604 SV); experiment: Minimal inhibitory concentration (MIC), broth microdilution; assay type: cell-based; conditions: Staphylococcus aureus ATCC 9604 SV, 24 h at 37° C.
Procedure: as §1

[3] = system: methicillin-resistant Staphylococcus aureus (ATCC 33591); experiment: In vivo mouse intraperitoneal infection, mortality and % survivors over 7 days; conditions: 1 and 5 h post inoculation, MRSA ATCC 33591 i.p., ICR mice
Procedure: Ten male ICR mice weighing 20 grams were inoculated intraperitoneally with an LD90-100 dose (2-3×10^7 CFU/mouse) of methicillin-resistant Staphylococcus aureus (ATCC 33591) in brain-heart infusion broth containing 5% mucin. Compounds were suspended in a vehicle containing 1% cremophore EL (Sigma) in normal saline and were administered subcutaneously in a volume of 0.4 ml per mouse either 1 hour following bacterial inoculation or 1 and 5 hours post inoculation. Animals receiving two doses of drug were injected subcutaneously in the hindquarter one hour post-innoculation and in the neck area, 5 hours post-innoculation. Deaths occurring during the subsequent 7 days are recorded. Mortality and % survivor endpoints are calculated.

Structure (SMILES)	IC50 [1]	also measured
O=C(Nc1cc(C(F)(F)F)cc(C(F)(F)F)c1)Nc1cc(-c2ccc(Cl)cc2)nn1-c1ccc(C(F)(F)F)cc1 [Compound 79]	0.126 µM	
O=C(Nc1cc(C(F)(F)F)cc(C(F)(F)F)c1)Nc1cc(-c2cccc(C(F)(F)F)c2)nn1-c1ccc(C(F)(F)F)cc1 [Compound 80]	0.539 µM	
O=C(Nc1cc(C(F)(F)F)cc(C(F)(F)F)c1)Nc1cc(-c2ccc(OC(F)(F)F)cc2)nn1-c1ccc(C(F)(F)F)cc1 [Compound 81]	0.159 µM	
COc1ccc(-c2cc(NC(=O)Nc3cc(C(F)(F)F)cc(C(F)(F)F)c3)n(-c3ccc(C(F)(F)F)cc3)n2)cc1 [Compound 82]	0.149 µM	
O=C(Nc1cc(C(F)(F)F)cc(C(F)(F)F)c1)Nc1cc(-c2ccccn2)nn1-c1ccc(C(F)(F)F)cc1 [Compound 85]	0.359 µM	
Cc1cc(-c2cc(NC(=O)Nc3cc(Cl)cc(Cl)c3)n(-c3ccc(Br)cc3)n2)no1 [Compound 114]	1.63 µM	
CC(C)(C)c1csc(NC(=O)Nc2cc(C(F)(F)F)cc(C(F)(F)F)c2)n1 [Compound 124]	0.513 µM	
O=C(Nc1cc(C(F)(F)F)cc(C(F)(F)F)c1)Nc1nc(CCCO)cs1 [Compound 125]	2.07 µM	
O=C(Nc1cc(C(F)(F)F)cc(C(F)(F)F)c1)Nc1nc(-c2ccc(Cl)cc2)cs1 [Compound 138, 1-(3,5-Bis-trifluoromethyl-phenyl)-3-[4-(4-chloro-phenyl)-thiazol-2-yl]-urea]		IC50 ([1]; ATCC9604): 0.1 µM
O=C(Nc1cc(C(F)(F)F)cc(C(F)(F)F)c1)Nc1nc(-c2ccc(Cl)cc2Cl)cs1 [Compound 148]	0.4 µM	
O=C(Nc1cc(C(F)(F)F)cc(C(F)(F)F)c1)Nc1nc(-c2ccc(F)cc2F)cs1 [Compound 149]	0.879 µM	
CC(C)(C)c1csc(NC(=O)NCc2cccc(Cl)c2)n1 [Compound 172]		MIC [2]: 8.10 mg/L (≈ 25 µM); In Vivo, double dose (% of mice rescued) ([3]; 2 × 2 mg/kg s.c.): 12.5% @ 2 × 2 mg/kg; In Vivo, double dose (% of mice rescued) ([3]; 2 × 20 mg/kg s.c.): 25% @ 2 × 20 mg/kg
O=C(NCc1cccc(Cl)c1)Nc1nc(C2CCCC2)cs1 [Compound 173]		MIC [2]: 8.40 mg/L (≈ 25 µM); In Vivo, double dose (% of mice rescued) ([3]; 2 × 2 mg/kg s.c.): 25% @ 2 × 2 mg/kg; In Vivo, double dose (% of mice rescued) ([3]; 2 × 20 mg/kg s.c.): 25% @ 2 × 20 mg/kg

Continued, in another order:

IC50 [1]	Structure (SMILES)	also measured
0.97 µM	O=C(Nc1cc(C(F)(F)F)cc(C(F)(F)F)c1)Nc1nc(-c2ccccc2)cs1 [Compound 132]	
4.63 µM	COc1ccccc1-c1csc(NC(=O)Nc2cc(C(F)(F)F)cc(C(F)(F)F)c2)n1 [Compound 133]	
4.52 µM	COc1cccc(-c2csc(NC(=O)Nc3cc(C(F)(F)F)cc(C(F)(F)F)c3)n2)c1 [Compound 134]	
0.133 µM	O=C(Nc1cc(C(F)(F)F)cc(C(F)(F)F)c1)Nc1nc(-c2ccc(Br)cc2)cs1 [Compound 136]	
0.838 µM	Cc1sc(NC(=O)Nc2cc(C(F)(F)F)cc(C(F)(F)F)c2)nc1-c1ccc(Br)cc1 [Compound 137]	
0.653 µM	Cc1ccc(-c2csc(NC(=O)Nc3cc(C(F)(F)F)cc(C(F)(F)F)c3)n2)cc1 [Compound 140]	
1.36 µM	COc1ccc(-c2csc(NC(=O)Nc3cc(C(F)(F)F)cc(C(F)(F)F)c3)n2)cc1 [Compound 141]	
0.337 µM	N#Cc1ccc(-c2csc(NC(=O)Nc3cc(C(F)(F)F)cc(C(F)(F)F)c3)n2)cc1 [Compound 144]	
0.799 µM	O=C(Nc1cc(C(F)(F)F)cc(C(F)(F)F)c1)Nc1nc(-c2ccc(-c3ccccc3)cc2)cs1 [Compound 147]	
